Like-named read-outs stand apart in the source and are kept apart here.
Tests used:
[1] = target: T1, α1B Human Adrenergic Receptor (Homo sapiens, UniProt P35368); assay: [3H]prazosin radioligand binding, cloned human α1B receptor; conditions: LM(tk-) membranes, [3H]prazosin 0.5 nM, 37° C., 20 min
T1 construct: The entire coding region of α1B (1563 bp); expressed in transfected cells; membranes
T1 sequence (P35368 1-520): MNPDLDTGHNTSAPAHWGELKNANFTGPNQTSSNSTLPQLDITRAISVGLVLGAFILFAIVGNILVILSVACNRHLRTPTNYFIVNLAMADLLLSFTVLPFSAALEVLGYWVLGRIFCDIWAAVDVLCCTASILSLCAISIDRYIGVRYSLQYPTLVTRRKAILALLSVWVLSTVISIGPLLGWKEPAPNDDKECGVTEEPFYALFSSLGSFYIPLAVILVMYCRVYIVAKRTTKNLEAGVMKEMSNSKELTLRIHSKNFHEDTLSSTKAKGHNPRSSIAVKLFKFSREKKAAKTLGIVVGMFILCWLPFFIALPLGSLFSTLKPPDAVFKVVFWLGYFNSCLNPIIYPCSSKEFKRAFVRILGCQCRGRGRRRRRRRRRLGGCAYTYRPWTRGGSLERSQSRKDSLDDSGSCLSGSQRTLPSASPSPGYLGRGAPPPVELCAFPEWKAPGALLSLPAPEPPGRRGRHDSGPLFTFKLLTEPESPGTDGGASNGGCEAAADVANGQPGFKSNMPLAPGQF
Description: (§1) Binding affinities were measured for selected compounds of the invention at six cloned human alpha-1 and alpha-2 receptor subtypes, as well as at the L-type calcium channel. The protocols for these experiments are given below.
(§2) The activity of compounds at the different human receptors was determined in vitro using cultured cell lines that selectively express the receptor of interest. These cell lines were prepared by transfecting the cloned cDNA or cloned genomic DNA or constructs containing both genomic DNA and cDNA encoding the human α-adrenergic receptors as follows:
(§3) The construct involved the ligation of partial overlapping human lymphocyte genomic and hippocampal cDNA clones: 5' sequence were contained on a 1.2 kb SmaI-XhoI genomic fragment (the vector-derived -BamHI site was used for subcloning instead of the internal insert-derived SmaI site) and 3' sequences were contained on an 1.3 kb XhoI-ClaI cDNA fragment (the ClaI site was from the vector polylinker). […]
(§4) Transfected cells from culture flasks were scraped into 5 ml of 5 mM Tris-HCl, 5 mM EDTA, pH 7.5, and lysed by sonication. […] Nonspecific binding was determined in the presence of 10 μM phentolamine. […] Inhibition experiments, routinely consisting of 7 concentrations of the tested compounds, were analyzed using a non-linear regression curve-fitting computer program to obtain Ki values.

[2] = target: T2, α1A Human Adrenergic Receptor (Homo sapiens, UniProt P35348); assay: [3H]prazosin radioligand binding, cloned human α1A receptor; conditions: LM(tk-) membranes, [3H]prazosin 0.5 nM, 37° C., 20 min
T2 construct: The entire coding region of α1A (1401 bp); expressed in transfected cells; membranes
T2 sequence (P35348 1-466): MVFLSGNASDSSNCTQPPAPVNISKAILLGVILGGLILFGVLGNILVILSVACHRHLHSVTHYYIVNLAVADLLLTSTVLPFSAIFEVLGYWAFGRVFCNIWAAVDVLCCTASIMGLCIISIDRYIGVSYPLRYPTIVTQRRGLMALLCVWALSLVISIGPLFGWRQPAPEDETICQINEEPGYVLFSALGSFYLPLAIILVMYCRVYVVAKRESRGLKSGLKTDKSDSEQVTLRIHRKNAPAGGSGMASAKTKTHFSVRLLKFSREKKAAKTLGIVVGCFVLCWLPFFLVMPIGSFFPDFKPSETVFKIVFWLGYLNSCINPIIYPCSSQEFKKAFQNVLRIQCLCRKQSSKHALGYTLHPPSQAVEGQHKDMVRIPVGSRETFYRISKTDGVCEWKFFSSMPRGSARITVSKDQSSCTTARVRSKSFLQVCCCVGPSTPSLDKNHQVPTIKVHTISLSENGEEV
Description: as §1, §2, §3
Transfected cells from culture flasks were scraped into 5 ml of 5 mM Tris-HCl, 5 mM EDTA, pH 7.5, and lysed by sonication. […] Nonspecific binding was determined in the presence of 10 μM phentolamine. […]

[3] = target: T3, α1D Human Adrenergic Receptor (Homo sapiens, UniProt P25100); assay: [3H]prazosin radioligand binding, cloned human α1D receptor; conditions: LM(tk-) membranes, [3H]prazosin 0.5 nM, 37° C., 20 min
T3 construct: The entire coding region of α1D (1719 bp); expressed in transfected cells; membranes
T3 sequence (P25100 1-572): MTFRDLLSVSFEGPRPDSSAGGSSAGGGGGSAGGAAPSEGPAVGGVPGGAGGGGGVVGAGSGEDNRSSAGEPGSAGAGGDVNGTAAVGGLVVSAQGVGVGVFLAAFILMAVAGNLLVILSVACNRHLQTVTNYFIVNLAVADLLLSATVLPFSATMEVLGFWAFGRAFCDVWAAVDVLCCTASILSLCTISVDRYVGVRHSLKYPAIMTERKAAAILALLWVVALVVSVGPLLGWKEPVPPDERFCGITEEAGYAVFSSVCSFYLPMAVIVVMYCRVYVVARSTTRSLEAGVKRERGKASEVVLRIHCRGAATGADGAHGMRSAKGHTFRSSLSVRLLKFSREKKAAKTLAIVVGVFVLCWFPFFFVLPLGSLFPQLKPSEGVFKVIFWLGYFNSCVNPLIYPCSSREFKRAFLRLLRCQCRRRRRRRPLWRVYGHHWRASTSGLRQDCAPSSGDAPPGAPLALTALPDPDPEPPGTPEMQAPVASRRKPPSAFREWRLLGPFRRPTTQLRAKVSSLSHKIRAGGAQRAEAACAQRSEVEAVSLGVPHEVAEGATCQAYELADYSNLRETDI
Description: as §1, §2
The entire coding region of α1D (1719 bp), including 150 base pairs of 5' untranslated sequence t5' UT) and 300 bp of 3' untranslated sequence (3' UT), was cloned into the BamHI and ClaI sites of the polylinker-modified eukaryotic expression vector pCEXV-3, called EXJ.HR. […]
as §4

[4] = literature, BPH patients; cited from earlier work
[5] = cited from earlier work

| Compound | usefulness in BPH [4] | side effects ([5]; literature) | also measured |
| --- | --- | --- | --- |
| COCC1=C(C(C)=O)C(c2cc(F)c(F)c(F)c2)N(C(=O)NCCN[C@H]2CC[C@](C#N)(c3ccccc3)CC2)C(=O)N1.Cl (stereo partly drawn) [Example 2, cis-6-(3,4,5-Trifluorophenyl)-1-{N-[2-(4-cyano-4 phenyl-cyclohexylamino)ethyl]}-carboxamido-5-acetyl-4-methoxymethyl-2-oxo-1,2,3,6 - tetrahydropyrimidine hydrochloride] |  |  | hα1B pKi [1]: 7.76; hα1A pKi [2]: 9.51; hα1D pKi [3]: 7.05 |
| COc1cc2nc(N3CCN(C(=O)c4ccco4)CC3)nc(N)c2cc1OC [prazosin] | useful for treating BPH |  | side effects ([5]; in vivo): untoward side effects |
| Clc1cccc(Cl)c1N=C1NCCN1 [clonidine] |  | dry mouth and sedation |  |
| CC(COc1ccccc1)N(CCCl)Cc1ccccc1 (stereo not shown) [phenoxybenzamine] | useful in relieving the symptoms of BPH | significant side effects such as dizziness and asthenia |  |
| COc1cc2nc(N3CCN(C(=O)C4CCCO4)CC3)nc(N)c2cc1OC (stereo not shown) [terazosin] | useful for treating BPH | untoward side effects |  |

Reference: patent US6228861A, “Dihydropyrimidines and uses thereof” (Synaptic Pharmaceutical Corporation, priority 1998, dated 2001)
